Data: US10821079B2, “PKC activators and combinations thereof” (Cognitive Research Enterprises, Inc., priority 2011, dated 2020)

Experiments:
Format in all cases: cell-based, human
PKC-ε [1] = test: PKC-ε translocation to membrane in SH-SY5Y cells (Western blot)
Method: Cells were harvested in homogenizing buffer containing 10 mM Tris-Cl (pH 7.4), 1 mM PMSF (phenylmethylsulfonyl fluoride), 1 mM EGTA, 1 mM EDTA, 50 mM NaF, and 20 μM leupeptin and were lysed by sonication. The homogenate was centrifuged at 100,000×g for 15 min at 4° C. to obtain the cytosolic fraction (supernatant) and membrane (pellet). The pellet was resuspended in the homogenizing buffer by sonication. Protein concentration was measured using the Coomassie Plus (Bradford) Protein Assay kit (Pierce, USA). Following quantification, 20 μg of protein from each sample was subjected to SDS-PAGE analysis in 4-20% gradient Tris-Glycine gel (Invitrogen, USA). The separated protein was then transferred to nitrocellulose membrane. The membrane was blocked with BSA at room temperature for 15 min and was incubated with primary antibody over night at 4° C. After the incubation, it was washed three times with TBS-T (Tris Buffered saline-Tween 20) and further incubated with alkaline phosphatase conjugated secondary antibody (Jackson Immunoresearch Laboratories, USA) at 1:10,000 dilution for 45 min. The membrane was finally washed three times with TBS-T and developed using the 1-step NBT-BCIP substrate (Pierce, USA). Western Blot was imaged in the ImageQuant RT-ECL (GE Life Sciences, Piscataway, N.J.) and densitometric quantification was performed using the IMAL software (Blanchette Rockefeller Neurosciences Institute, Morgantown, W. Va.). For translocation assays, PKC activation was represented as the percentage of total protein in the membrane (membrane/cytosol+membrane).
Equal amounts of proteins were loaded in each lane (20 μg) for both the cytosol and membrane fractions. Activation of PKC was calculated as the percentage of total PKC in the membrane (membrane/cytosol+membrane).

[2] = test system: SH-SY5Y neuroblastoma cells; test: Neuronal and synaptic marker expression in cells treated with RA and Bryostatin-1 (immunofluorescence, immunoblot)
Method: Human SH-SY5Y neuroblastoma cells (ATCC) were cultured in 45% F12K, 45% minimum Eagle's medium, 10% fetal calf serum. […] For differentiation of SH-SY5Y cells were maintained at 2% serum and treated with 10 μM RA for 72 hr. […] Medium was changed every 3 days with fresh supplementation of RA. Rat hippocampal neurons from 18-day-old embryonic Sprague-Dawley rat brains were plated on 24-well plates coated with poly-D-lysine (Sigma-Aldrich) in neurobasal medium supplemented with B-27 containing 0.5 mM glutamine and 25 μM glutamate (Invitrogen). The neuronal cells were grown under 5% CO2 for 14 days in an incubator maintained at 37° C.
Cells were harvested in homogenizing buffer containing 10 mM Tris-Cl (pH 7.4), 1 mM PMSF (phenylmethylsulfonyl fluoride), 1 mM EGTA, 1 mM EDTA, 50 mM NaF, and 20 μM leupeptin and were lysed by sonication. […] Protein concentration was measured using the Coomassie Plus (Bradford) Protein Assay kit (Pierce, USA). Following quantification, 20 μg of protein from each sample was subjected to SDS-PAGE analysis in 4-20% gradient Tris-Glycine gel (Invitrogen, USA). […] Western Blot was imaged in the ImageQuant RT-ECL (GE Life Sciences, Piscataway, N.J.) and densitometric quantification was performed using the IMAL software (Blanchette Rockefeller Neurosciences Institute, Morgantown, W. Va.). […]

PKC-ε [3] = test: PKC-ε mRNA by RT-PCR in RA / Bryostatin-1 treated cells
Method: RNA was isolated from the cells using Trizol reagent (Invitrogen, USA) following the manufacturer's protocol. Briefly, 5 μg of total RNA was reverse transcribed using oligo (dT) and Superscript III (Invitrogen, USA) at 50° C. for 1 hr. Two μl of the cDNA product was amplified using primers for PKC-ε (Forward Primer—[…], Reverse primer—[…]), and β-tubulin (Forward Primer—[…], Reverse primer—[…]) (Origene, Rockville, Md.) for 25 cycles following standard PCR protocols and 55° C. annealing temperature. The PCR amplicons were analyzed in an E-Gel (Invitrogen, USA). The gel image was documented using a Fuji Image gel scanner (FLA-9000, Fuji Film) and densitometric quantification was performed using the IMAL software (Blanchette Rockefeller Neurosciences Institute, Morgantown, W. Va.). Data were represented as normalized ratio of PKC-ε OD (Optical Density) against β-tubulin OD for three independent experiments.

| SMILES | PKC-ε translocation over time (in words) (PKC-ε [1]; 0.27 nM, 0-60 min) | increase of synaptophysin expression (immunoblot) ([2]; alone, 72 hr) [%] | increase of mRNA level of PKC-ε (PKC-ε [3]) [fold] | PKC-ε translocation (in words) (PKC-ε [1]; Aβ1-42 monomers 1 μM, DCPLA-ME added to ASPD-treated cells) | change in synaptophysin or PSD-95 (in words) ([2]; RA only) |
| --- | --- | --- | --- | --- | --- |
| CCC/C=C/C=C/C(=O)O[C@H]1/C(=C/C(=O)OC)C[C@H]2C[C@H]([C@@H](C)O)OC(=O)C[C@H](O)C[C@@H]3C[C@H](OC(C)=O)C(C)(C)C(O)(C[C@@H]4C/C(=C/C(=O)OC)C[C@H](/C=C/C(C)(C)[C@]1(O)O2)O4)O3 [Bryostatin-1] | remained activated at 60 min | 50 | 2 | – | – |
| CCCCCC1CC1CC1CC1CCCCCCCC(=O)OC (stereo not drawn) [DCPLA-ME, methyl 8-(2-((2-pentylcyclopropyl)methyl)cyclopropyl)octanoate] | – | – | – | restored PKC-ε translocation to normal | – |
| CC1=C(/C=C/C(C)=C/C=C/C(C)=C/C(=O)O)C(C)(C)CCC1 [RA, All-trans retinoic acid] | – | – | 2 | – | did not show much change |
